Measurements reported in the supplement of paper PMC10307832.

Assays:
Test in all cases: relative viability (nuclei count vs DMSO), 5 days (fraction); higher = more cells survive
FG-4592 + OSI-027 = compound: Cc1nc(C(=O)NCC(=O)O)c(O)c2ccc(Oc3ccccc3)cc12 [FG-4592] + COc1cccc2cc(-c3nc([C@H]4CC[C@H](C(=O)O)CC4)n4ncnc(N)c34)[nH]c12 [OSI-027] (partner 0.5 µM)
Procedure, shortened: (§1)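 Relative viability was taken as the ratio of nuclei in treated wells to nuclei in vehicle wells. Lung cancer cell lines in 1536-well plates received compounds by pin tool one day after seeding, either one drug alone or a fixed anchor-drug dose plus five library-drug doses (not always all listed) in √10 steps. Nuclei were counted on 4× images after 5 days of treatment, and values are medians of duplicate plates.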

IU1-47 + OSI-027 = compound: CC1=CC(=C(N1C2=CC=C(C=C2)Cl)C)C(=O)CN3CCCCC3 [IU1-47] + COc1cccc2cc(-c3nc([C@H]4CC[C@H](C(=O)O)CC4)n4ncnc(N)c34)[nH]c12 [OSI-027] (partner 0.5 µM)
Procedure, shortened: as §1

IU1-47 + Crizotinib = compound: CC1=CC(=C(N1C2=CC=C(C=C2)Cl)C)C(=O)CN3CCCCC3 [IU1-47] + C[C@@H](Oc1cc(-c2cnn(C3CCNCC3)c2)cnc1N)c1c(Cl)ccc(F)c1Cl [Crizotinib] (partner 1 µM)
Procedure, shortened: as §1

IU1-47 + Decitabine = compound: CC1=CC(=C(N1C2=CC=C(C=C2)Cl)C)C(=O)CN3CCCCC3 [IU1-47] + Nc1ncn([C@H]2C[C@H](O)[C@@H](CO)O2)c(=O)n1 [Decitabine] (partner 2 µM)
Procedure, shortened: as §1

Cell Line	relative viability (FG-4592 + OSI-027; first compound 0.08 µM)	relative viability (FG-4592 + OSI-027; first compound 0.253 µM)	relative viability (FG-4592 + OSI-027; first compound 0.8 µM)	relative viability (FG-4592 + OSI-027; first compound 2.53 µM)	relative viability (FG-4592 + OSI-027; first compound 8 µM)	relative viability (IU1-47 + OSI-027; first compound 0.08 µM)	relative viability (IU1-47 + OSI-027; first compound 0.253 µM)	relative viability (IU1-47 + OSI-027; first compound 0.8 µM)	relative viability (IU1-47 + OSI-027; first compound 2.53 µM)	relative viability (IU1-47 + OSI-027; first compound 8 µM)	relative viability (IU1-47 + Crizotinib; first compound 0.08 µM)	relative viability (IU1-47 + Crizotinib; first compound 0.253 µM)	relative viability (IU1-47 + Crizotinib; first compound 0.8 µM)	relative viability (IU1-47 + Crizotinib; first compound 2.53 µM)	relative viability (IU1-47 + Crizotinib; first compound 8 µM)	relative viability (IU1-47 + Decitabine; first compound 0.08 µM)	relative viability (IU1-47 + Decitabine; first compound 0.253 µM)	relative viability (IU1-47 + Decitabine; first compound 0.8 µM)	relative viability (IU1-47 + Decitabine; first compound 2.53 µM)	relative viability (IU1-47 + Decitabine; first compound 8 µM)
RERF-LC-KJ	0.606	0.503	0.565	0.505	0.567	0.596	0.586	0.565	0.36	0.567	0.805	0.86	0.787	0.848	0.884	0.784	0.912	0.673	0.639	0.578
LXF-289	0.659	0.717	0.755	0.709	0.821	0.913	0.768	0.811	0.591	0.736	0.854	0.858	0.82	0.796	0.817	0.377	0.367	0.397	0.367	0.346
PC-14	0.871	0.655	0.855	0.747	0.494	0.881	0.925	1.11	0.302	0.847	0.921	0.888	0.845	0.999	0.926	0.177	0.205	0.235	0.261	0.209
NCI-H650	0.492	0.457	0.433	0.45	0.407	0.507	0.55	0.487	0.482	0.441	0.685	0.788	0.695	0.71	0.648	0.369	0.333	0.27	0.334	0.291
NCI-H1666	0.809	0.803	0.837	0.775	0.621	0.914	0.86	0.901	0.879	0.817	0.948	0.914	0.927	0.991	1.08	0.802	0.714	0.718	0.738	0.784
NCI-H2085	0.788	0.735	0.648	0.519	0.652	0.724	0.748	0.872	0.531	0.729	0.911	0.847	0.851	0.869	0.739	0.54	0.549	0.566	0.519	0.478
NCI-H1734	0.565	0.621	0.541	0.529	0.445	0.703	0.659	0.662		0.565	0.658	0.688	0.646		0.647	0.6	0.541	0.548	0.5	0.419
NCI-H2126	0.806	0.627	0.663	0.623	0.67	0.729	0.883	0.673	0.539	0.649	1.08	1.08	1.03	0.813	0.972	0.564	0.584	0.599	0.544	0.583
EMC-BAC-2	0.338	0.407	0.339	0.333	0.344	0.392	0.368	0.374	0.38	0.362	0.802	0.863	0.752	0.835	0.75	1.07	1.03	0.996	1.07	0.924
NCI-H1993	0.508	0.504	0.546	0.512	0.559	0.492	0.586	0.498	0.498	0.567	0.928	0.84	0.965	0.85	0.864	0.602	0.641	0.628	0.687	0.537
NCI-H520	0.234	0.285	0.286	0.257	0.205	0.261	0.27	0.305	0.3	0.206	0.815	0.984	0.627	0.8	0.499	0.484	0.507	0.469	0.513	0.416
NCI-H647	0.547	0.675	0.686	0.565	0.602	0.744	0.605		0.7	0.478	1.01	1.22	0.99	1.07	0.561	0.454	0.487	0.462	0.39	0.4
NCI-H1792	0.803	0.69	0.794	0.575	0.735	0.816	0.771	0.879	0.566	0.691	0.993	1.03	1.07	1.02	0.522	0.625	0.639	0.611	0.497	0.371
SK-LU-1	0.3	0.177	0.349	0.345	0.239	0.4	0.32	0.309	0.362	0.323	0.975	0.912	0.963	0.996	0.814	0.57	0.695	0.692	0.56	0.543
ChaGo-K-1	0.577	0.545	0.532	0.471	0.413	0.485	0.535	0.589	0.41	0.489	1.04	1.21	1.24	1.31	0.954	0.531	0.529	0.542	0.536	0.533
NCI-H1650	0.523	0.603	0.839	0.621	0.634	0.502	0.438	0.645	0.521	0.412	0.978	0.969	0.802	1.16	0.857	0.474	0.593	0.391	0.366	0.445
